Experimental findings from patent publication US11078193B2 (priority 2014, dated 2021) are described below.

Data set [1] has as its system HBV. Briefly: anti HBV activity, HepG2.117 inducibly HBV producing cell line (Tet-off), intracellular HBV DNA by realtime PCR. Format: cell-based. As to conditions: Hepatitis B virus, 72 h, HepG2.117 cells, 3 days of treatment.
Data set [2] can be described thus: ATP based toxicity assay (ATPlite), HepG2 cell line. The conditions noted are these: human, HepG2 cells, ATPlite (ATP levels). The protocol: Alternatively, cytotoxicity was determined via an ATP-assay: The ATPlite kit from Perkin Elmer was used to assess compound cytotoxicity on the HepG2 cell line by determination of the ATP (adenosine triphosphate) levels. ATP is a marker for functional integrity and cell viability, because it is present in all metabolically active cells and any form of cell injury will result in a rapid decline in cellular ATP concentration. After compound incubation, 1 volume of ATPlite solution was added to the cells and the luminescence signal was measured.

Data set [3] relates to HBV. Nature of the data set: anti-HBV activity, HepG2.2.15 stable transfected cell line, HBV DNA from secreted virions by realtime PCR. It counts as cell-based. The conditions noted are these: Hepatitis B virus, 144 h, HepG2.2.15 cells, 6 days of treatment.
Data set [4] in a line: Cytotoxicity, HepG2 cells, Resazurin assay. Format: cell-based. The conditions noted are these: human. (Alamar Blue is a resazurin reagent that responds to reducing activity.)

In general, EC50 refers to the concentration at which the effect is half-maximal. A low value points to greater potency. What is called CC50 is the concentration at which the toxic effect on the cells reaches its halfway point. Low readings indicate greater toxicity to the cells, high ones lower toxicity to the cells.

Structures are written as SMILES.

For the compound `Cc1cc(NC(=O)c2c(F)c(S(=O)(=O)N[C@H](C)C(F)(F)F)cn2C)cc(Cl)n1` [Compound 213, N-(2-chloro-6-methyl-4-pyridyl)-3-fluoro-1-methyl-4-[[(1R)-2,2,2-trifluoro-1-methyl-ethyl]sulfamoyl]pyrrole-2-carboxamide], the response in data set [1] was half-maximal at 0.05 µM (EC50). For the same compound, the CC50 at 4 days in data set [2] is greater than 25 µM.

In data set [1], `Cc1nc(NC(=O)c2c(F)c(S(=O)(=O)N[C@H](C)C(F)(F)F)cn2C)ccc1F` [Compound 214, 3-fluoro-N-(5-fluoro-6-methyl-2-pyridyl)-1-methyl-4-[[(1R)-2,2,2-trifluoro-1-methyl-ethyl]sulfamoyl]pyrrole-2-carboxamide] gave an EC50 of 0.08 µM. Further, the CC50 at 4 days in data set [2] was greater than 25 µM.

Regarding `Cn1cc(S(=O)(=O)NC2(C(F)(F)F)CC2)c(F)c1C(=O)Nc1ccnc(C#N)c1` [Compound 192, N-(2-cyano-4-pyridyl)-3-fluoro-1-methyl-4-[[1-(trifluoromethyl)cyclopropyl]sulfamoyl]pyrrole-2-carboxamide], the EC50 in data set [1] is 0.02 µM. This compound also showed a CC50 at 4 days in data set [2] greater than 25 µM.

`Cn1cc(S(=O)(=O)NC2(C(F)(F)F)COC2)c(F)c1C(=O)Nc1ccnc(C(F)F)c1` [Compound 210] came in with an EC50 in data set [1] of 0.07 µM. In data set [2], this compound gave a CC50 at 4 days greater than 25 µM.

As to `Cc1c(S(=O)(=O)N[C@H](C)C(F)(F)F)c(F)c(C(=O)Nc2ccnc(C(F)F)c2F)n1C` [Compound 207, N-[2-(difluoromethyl)-3-fluoro-4-pyridyl]-3-fluoro-1,5-dimethyl-4-[[(1R)-2,2,2-trifluoro-1-methyl-ethyl]sulfamoyl]pyrrole-2-carboxamide], the EC50 in data set [1] is 0.01 µM. The compound further displayed a CC50 at 4 days in data set [2] greater than 25 µM.

The compound `Cn1cc(S(=O)(=O)NC2CCN(CC(F)(F)F)CC2)c(F)c1C(=O)Nc1ccnc(Cl)c1` [Compound 217, N-(2-chloro-4-pyridyl)-3-fluoro-1-methyl-4-[[1-(2,2,2-trifluoroethyl)-4-piperidyl]sulfamoyl]pyrrole-2-carboxamide] displayed an EC50 in data set [1] of 0.46 µM. Also, the CC50 at 4 days in data set [2] was greater than 25 µM.

`Cn1cc(S(=O)(=O)NC2(C(F)(F)F)COC2)c(F)c1C(=O)Nc1ccnc(Cl)c1` [Compound 198] gave an EC50 in data set [1] of 0.09 µM. In data set [2], this compound came in with a CC50 at 4 days greater than 25 µM.

In data set [1], `Cn1cc(S(=O)(=O)NC2(C(F)(F)F)COC2)c(F)c1C(=O)Nc1ccnc(Cl)c1F` [Compound 212, N-(2-chloro-3-fluoro-4-pyridyl)-3-fluoro-1-methyl-4-[[3-(trifluoromethyl)oxetan-3-yl]sulfamoyl]pyrrole-2-carboxamide] showed an EC50 of 0.06 µM. The same compound registered a CC50 at 4 days in data set [2] greater than 25 µM.

With `C[C@@H](NS(=O)(=O)c1cn(C)c(C(=O)Nc2ccnc(C(F)F)c2F)c1F)C(C)(F)F` [Compound 204, N-[2-(difluoromethyl)-3-fluoro-4-pyridyl]-4-[[(1R)-2,2-difluoro-1-methyl-propyl]sulfamoyl]-3-fluoro-1-methyl-pyrrole-2-carboxamide], a half-maximal effect in data set [1] (EC50) was put at 0.01 µM. This compound came in with a CC50 at 4 days in data set [2] greater than 25 µM.

On to `C[C@@H](NS(=O)(=O)c1cn(C)c(C(=O)Nc2ccnc(CF)c2)c1Cl)C(F)(F)F` [Compound 145, 3-chloro-N-[2-(fluoromethyl)-4-pyridyl]-1-methyl-4-[[(1R)-2,2,2-trifluoro-1-methyl-ethyl]sulfamoyl]pyrrole-2-carboxamide], for which the EC50 in data set [1] came out at 0.08 µM. The CC50 at 4 days in data set [2] is greater than 25 µM.

As for `Cn1cc(S(=O)(=O)NC(C)(C)C(F)(F)F)c(F)c1C(=O)Nc1ccnc(C(F)F)c1F` [Compound 201, N-[2-(difluoromethyl)-3-fluoro-4-pyridyl]-3-fluoro-1-methyl-4-[(2,2,2-trifluoro-1,1-dimethyl-ethyl)sulfamoyl]pyrrole-2-carboxamide], the EC50 in data set [1] worked out at 0.03 µM. For the same compound, in data set [2], the CC50 at 4 days was greater than 25 µM.

`Cn1cc(S(=O)(=O)NC2(C(F)(F)F)CC2)c(F)c1C(=O)Nc1cc(F)nc(F)c1` [Compound 193, N-(2,6-difluoro-4-pyridyl)-3-fluoro-1-methyl-4-[[1-(trifluoromethyl)cyclopropyl]sulfamoyl]pyrrole-2-carboxamide] registered an EC50 in data set [1] of 0.009 µM. Also, the CC50 at 4 days in data set [2] is greater than 25 µM.

The compound `Cn1cc(S(=O)(=O)NC(C)(C)C(F)(F)F)c(F)c1C(=O)Nc1ccnc(Br)c1` [Compound 191, N-(2-bromo-4-pyridyl)-3-fluoro-1-methyl-4-[(2,2,2-trifluoro-1,1-dimethyl-ethyl)sulfamoyl]pyrrole-2-carboxamide] displayed an EC50 in data set [1] of 0.06 µM. The CC50 at 4 days in data set [2] is greater than 25 µM.

In data set [1], `Cn1cc(S(=O)(=O)NC2CCC2(F)F)c(F)c1C(=O)Nc1ccnc(Cl)c1` (centres unmarked) [Compound 174, N-(2-chloro-4-pyridyl)-4-[(2,2-difluorocyclobutyl)sulfamoyl]-3-fluoro-1-methyl-pyrrole-2-carboxamide] registered an EC50 of 0.11 µM. In data set [2], the CC50 at 4 days is greater than 25 µM.

As to `C[C@@H](NS(=O)(=O)c1cn(C)c(C(=O)Nc2cc(F)nc(Cl)c2)c1F)C(F)(F)F` [Compound 215, N-(2-chloro-6-fluoro-4-pyridyl)-3-fluoro-1-methyl-4-[[(1R)-2,2,2-trifluoro-1-methyl-ethyl]sulfamoyl]pyrrole-2-carboxamide], the EC50 in data set [1] turned out to be 0.006 µM. Also, the half-maximal cytotoxic concentration (CC50) at 4 days in data set [2] is greater than 25 µM.

Consider `Cn1cc(S(=O)(=O)NC2(C(F)(F)F)CC2)c(F)c1C(=O)Nc1ccnc(Br)c1` [Compound 194, N-(2-bromo-4-pyridyl)-3-fluoro-1-methyl-4-[[1-(trifluoromethyl)cyclopropyl]sulfamoyl]pyrrole-2-carboxamide], for which, in data set [1], the EC50 came to 0.02 µM. In addition, the CC50 at 4 days in data set [2] is greater than 25 µM.

For the compound `Cn1cc(S(=O)(=O)NC2(C)COC2)cc1C(=O)Nc1cc(C(F)(F)F)ccn1` [Compound 4, 1-Methyl-4-[(3-methyloxetan-3-yl)sulfamoyl]-N-[4-(trifluoromethyl)pyridin-2-yl]-1H-pyrrole-2-carboxamide], the EC50 in data set [3] was greater than 1 µM; in data set [1], 2.34 µM. In data set [4], the CC50 at 4 days is greater than 25 µM.

For `C[C@@H](NS(=O)(=O)c1cn(C)c(C(=O)Nc2ccnc(C(F)(F)F)c2)c1F)C(F)(F)F` [Compound 21, 3-fluoro-1-methyl-[[(1R)-2,2,2-trifluoro-1-methyl-ethyl]sulfamoyl]-N-[2-(trifluoromethyl)-4-pyridyl]pyrrole-2-carboxamide], the EC50 stood at 0.04 µM in data set [3] and 0.03 µM in data set [1]. Besides, in data set [4], the CC50 at 4 days was greater than 25 µM.

For the compound `Cc1cc(NC(=O)c2c(Cl)c(S(=O)(=O)N[C@H](C)C(F)(F)F)cn2C)cnc1F` [Compound 13, 3-Chloro-N-(6-fluoro-5-methylpyridin-3-yl)-1-methyl-4-{[(1R)-2,2,2-trifluoro-1-methylethyl]sulfamoyl}-1H-pyrrole-2-carboxamide], the EC50 in data set [3] is 0.11 µM; in data set [1], 0.18 µM. This compound showed a CC50 at 4 days in data set [4] greater than 25 µM.

With `C[C@@H](NS(=O)(=O)c1cn(C)c(C(=O)Nc2ccnc(Cl)c2F)c1Cl)C(F)(F)F` [Compound 33, 3-chloro-N-(2-chloro-3-fluoro-4-pyridyl)-1-methyl-4-[[(1R)-2,2,2-trifluoro-1-methyl-ethyl]sulfamoyl]pyrrole-2-carboxamide], the figures for the EC50 in data set [3] and in data set [1] were 0.008 µM and 0.01 µM, respectively. Moreover, the half-maximal cytotoxic concentration (CC50) at 4 days in data set [4] is greater than 25 µM.

With `C[C@@H](NS(=O)(=O)c1cn(C)c(C(=O)Nc2ccnc(Br)c2)c1F)C(C)(F)F` [Compound 124, N-(2-bromo-4-pyridyl)-4-[[(1R)-2,2-difluoro-1-methyl-propyl]sulfamoyl]-3-fluoro-1-methyl-pyrrole-2-carboxamide], the EC50 in data set [3] was less than 0.1 µM; in data set [1] it was 0.01 µM. Further, in data set [4], the CC50 at 4 days is greater than 25 µM.

As to `Cn1cc(S(=O)(=O)NC2(C)COC2)cc1C(=O)Nc1cccc(C(F)(F)F)n1` [Compound 5, 1-Methyl-4-[(3-methyloxetan-3-yl)sulfamoyl]-N-[6-(trifluoromethyl)pyridin-2-yl]-1H-pyrrole-2-carboxamide], the EC50 in data set [3] was found to be 0.92 µM; in data set [1], 3.11 µM. In data set [4], the CC50 at 4 days was greater than 25 µM.

Consider `Cn1cc(S(=O)(=O)NC2(C)CC(F)(F)C2)c(Cl)c1C(=O)Nc1ccnc(F)c1` [Compound 116, 3-chloro-4-[(3,3-difluoro-1-methyl-cyclobutyl)sulfamoyl]-N-(2-fluoro-4-pyridyl)-1-methyl-pyrrole-2-carboxamide], for which the EC50 came out at 0.21 µM in data set [3] and 0.02 µM in data set [1]. In addition, the CC50 at 4 days in data set [4] was greater than 25 µM.

Take `C[C@@H](NS(=O)(=O)c1cn(C)c(C(=O)Nc2cnc(F)c(Br)c2)c1Cl)C(F)(F)F` [Compound 34, N-(5-bromo-6-fluoro-3-pyridyl)-3-chloro-1-methyl-4-[[(1R)-2,2,2-trifluoro-1-methyl-ethyl]sulfamoyl]pyrrole-2-carboxamide]: the EC50 in data set [3] is 0.05 µM; in data set [1] it was 0.1 µM. The compound further returned a CC50 at 4 days in data set [4] greater than 25 µM.

As for `CC(C)NS(=O)(=O)c1cn(C)c(C(=O)Nc2ccnc(C(F)F)c2)c1F` [Compound 82, N-[2-(difluoromethyl)-4-pyridyl]-3-fluoro-4-(isopropylsulfamoyl)-1-methyl-pyrrole-2-carboxamide], the EC50 in data set [3] turned out to be 0.07 µM; in data set [1], 0.1 µM. The CC50 at 4 days in data set [4] was greater than 25 µM.

As to `C[C@@H](NS(=O)(=O)c1cn(C)c(C(=O)Nc2cccc(C#N)n2)c1F)C(F)(F)F` [Compound 25, N-(6-cyano-2-pyridyl)-3-fluoro-1-methyl-4-[[(1R)-2,2,2-trifluoro-1-methyl-ethyl]sulfamoyl]pyrrole-2-carboxamide], the EC50 in data set [3] was 0.19 µM; in data set [1] it was greater than 1 µM. The CC50 at 4 days in data set [4] was greater than 25 µM.
